Activity calls are given as the source filed them. The calls are words filed in the database; no cut-off is given here.
Columns and labels:
[1] = target: Matrix metalloproteinase-9 (Homo sapiens) (UniProt P14780); assay: Inhibition of human recombinant MMP9 catalytic domain (107 to 449 aa) expressed in Escherichia coli
[2] = target: T1, Histone deacetylase 8 (Homo sapiens) (UniProt Q9BY41); assay: Inhibition of full length human HDAC8 expressed in Escherichia coli assessed as inhibition of fluorophore 7-amino-4-methylcoumarin release by fluorescence assay
T1 sequence (whole entry): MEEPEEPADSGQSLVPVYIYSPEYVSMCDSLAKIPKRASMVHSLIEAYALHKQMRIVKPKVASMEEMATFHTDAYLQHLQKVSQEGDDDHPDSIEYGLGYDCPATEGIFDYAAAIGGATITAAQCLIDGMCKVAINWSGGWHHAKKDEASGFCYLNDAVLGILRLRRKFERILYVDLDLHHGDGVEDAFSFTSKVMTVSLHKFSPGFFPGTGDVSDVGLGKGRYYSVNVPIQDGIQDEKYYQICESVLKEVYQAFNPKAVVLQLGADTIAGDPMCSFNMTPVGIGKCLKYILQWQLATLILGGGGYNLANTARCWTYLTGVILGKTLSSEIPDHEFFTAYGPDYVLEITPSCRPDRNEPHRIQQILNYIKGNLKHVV

Sequence of Matrix metalloproteinase-9 (Homo sapiens) (P14780 whole entry, the tested form may be a part): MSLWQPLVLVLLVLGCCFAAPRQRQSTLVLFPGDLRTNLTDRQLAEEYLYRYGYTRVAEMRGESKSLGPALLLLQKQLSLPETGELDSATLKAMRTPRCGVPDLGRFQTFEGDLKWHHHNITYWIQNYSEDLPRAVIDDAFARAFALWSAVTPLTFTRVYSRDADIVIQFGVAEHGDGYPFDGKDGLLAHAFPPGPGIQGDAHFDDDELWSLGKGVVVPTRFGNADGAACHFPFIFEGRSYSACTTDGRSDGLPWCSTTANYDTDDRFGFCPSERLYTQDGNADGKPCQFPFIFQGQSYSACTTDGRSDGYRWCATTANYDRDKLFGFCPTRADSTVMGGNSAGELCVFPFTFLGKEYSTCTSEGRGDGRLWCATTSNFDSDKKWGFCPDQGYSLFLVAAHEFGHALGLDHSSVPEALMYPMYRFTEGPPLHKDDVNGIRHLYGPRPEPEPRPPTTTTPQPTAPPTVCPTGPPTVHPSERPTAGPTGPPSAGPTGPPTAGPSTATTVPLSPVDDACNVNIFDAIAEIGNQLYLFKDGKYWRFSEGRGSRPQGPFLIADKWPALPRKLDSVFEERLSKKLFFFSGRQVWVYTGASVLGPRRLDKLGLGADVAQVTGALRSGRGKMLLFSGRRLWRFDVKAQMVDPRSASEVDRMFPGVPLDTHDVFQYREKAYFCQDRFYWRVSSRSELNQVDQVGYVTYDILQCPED

inhibition [1]: Active
inhibition [2]: Active
Compound: O=C(NO)c1sc2ccccc2c1S(=O)(=O)c1ccccc1

Source: ChEMBL document CHEMBL3392986, “Hydroxamic acids block replication of hepatitis C virus” (J Med Chem, 2015)
